Experimental data as given in patent US6841236B2, “Articles containing thioxanthone dyes” (3M Innovative Properties Co., priority 2001, dated 2005).

Legend:
[1] = Daytime color of Paraloid B66 dye coating on retroreflective sheeting; format: physicochemical
Procedure: (§1) The daytime color of each article was measured using a Labsphere BFC-450 Bispectral Colorimeter commercially available from Labsphere, North Sutton, N.H. The daytime chromaticity (x,y), total luminance factor (YT), and fluorescence luminance factor (YF; which is a measure of the fluorescent properties of the article) calculated for the CIE D65 and the CIE 1931 observer are provided in TABLE II
Examples 19-21 were prepared by independently stirring 0.10 parts of the dyes of Examples 1 and 3 and 6-methoxy-14H-anthra(2,1,9-mna)thioxanthene-14-one in a clear vehicle solution of 64.8 parts Dowanol DPMA and 38.2 parts Paraloid B66.
The fluorescent dye solutions were coated on Scotchlite 3970 reflective sheeting using a #16 wire wound bar. The coating was air dried for 5 minutes and then dried in a 120° C. oven for 45 minutes. Color values were measured as described in Examples 8-10 and the results set out in TABLE V.

[2] = Daytime color of polycarbonate sheet with dye laminated to retroreflective sheeting (Labsphere BFC-450 Bispectral Colorimeter); format: physicochemical; settings: 0.2% dye in polycarbonate FCR-2407, 0.1 mm sheet on Scotchlite 3970; CIE D65, CIE 1931 observer
Procedure: Examples 8-10 were prepared with the compounds of Examples 1 and 2 and 6-methoxy-14H-anthra(2,1,9-mna)thioxanthene-14-one at a 0.2% loading in polycarbonate FCR-2407. Extrusion conditions for the polycarbonate were 260-304° C. using a single screw extruder. Optically transparent pressure sensitive adhesive with a liner on both sides of the adhesive was laminated to the 0.1 mm thick sheet of polycarbonate by removing one of the liners from the adhesive and then applying the exposed adhesive to the polycarbonate sheet with two passes of a roller using hand pressure.
The remaining liner was removed from the adhesive and the polycarbonate sheet construction was laminated to retroreflective sheeting commercially available from 3M under the trade designation “Scotchlite Diamond Grade LDP Reflective Sheeting Series 3970” (Scotchlite 3970) with two passes of a roller using hand pressure. The Scotchlite 3970 reflective sheeting had previously been laminated to a 7 cm wide by 28 cm long aluminum panel (6061T6 alloy with etch and desmut surface from Q Panel Company, Cleveland, Ohio) with two passes of a roller with hand pressure.
as §1

[3] = 0.10 parts dye in 64.8 parts Dowanol DPMA and 38.2 parts Paraloid B66, coated on Scotchlite 3970 with #16 wire wound bar, dried

CCCCCCCCOc1cc2c3ccccc3c(=O)c3ccc4c5ccccc5sc1c4c32 [Example 1, 6-n-Octyloxy-14H-anthra(2,1,9mna)thioxanthene-14-one]
YF (fluorescence luminance factor) [1, 3]: 11.09
YT (total luminance factor) [1, 3]: 30.10
x (daytime chromaticity) [1, 3]: 0.4381
y (daytime chromaticity) [1, 3]: 0.2980
appearance of coated article ([1]; dye in Paraloid B66 coating on Scotchlite 3970): bright fluorescent pink appearance
YF (fluorescence luminance factor) [2]: 14.6
YT (total luminance factor) [2]: 32.87
x (daytime chromaticity) [2]: 0.5232
y (daytime chromaticity) [2]: 0.3132
